Converted amounts (≈) assume the structure as drawn.

In data set [1] the test system is Mycobacterium tuberculosis. The experiment in a line: Antitubercular activity against Mycobacterium tuberculosis H37Rv after 1 week by microplate alamar blue assay. As to conditions: 168 h. The data set is classed as functional.
Data set [2] in a line: Cytotoxicity against mouse RAW264.7 cells assessed as growth inhibition after 48 hrs by MTT assay. The class given is cell-based. (Tetrazolium dyes change colour on reduction, which living cells bring about.)
A short description of data set [3]: Cytotoxicity against mouse RAW264.7 cells assessed as growth inhibition at 25 ug/ml after 48 hrs by MTT assay relative to control. The data set is classed as cell-based. As to conditions: read-out: GI.

For `O=C(NCCN1CCCCC1)c1c(-c2ccccc2)c2cc(Cl)ccc2[nH]c1=O`, the MIC in data set [1] worked out at 25 µg/mL (≈ 61 µM).

In data set [1], `O=C(Nc1ccc(F)cc1)c1c(-c2ccccc2)c2ccccc2[nH]c1=O` gave an MIC of 25 µg/mL (≈ 69.8 µM).

Turning to `O=C(NCCN1CCOCC1)c1c(-c2ccccc2)c2cc(Cl)ccc2[nH]c1=O`, the MIC in data set [1] was 25 µg/mL (≈ 60.7 µM).

Consider `Cc1cc(C)c(NC(=O)c2c(-c3ccccc3)c3cc(Cl)ccc3n(Cc3cccc(F)c3)c2=O)c(C)c1`, for which the 50% growth inhibitory concentration (GI50) at 48 h in data set [2] was determined as 93.5 µg/mL (≈ 178 µM). Also, in data set [3], the inhibition at 48 h, 25 ug/ml amounted to 22.4%. This molecule also returned an MIC in data set [1] of 0.78 µg/mL (≈ 1.49 µM).

Turning to `O=C(Nc1ccc(Br)cc1)c1c(-c2ccccc2)c2ccccc2n(Cc2ccccc2)c1=O`, the GI50 at 48 h in data set [2] stood at 113 µg/mL (≈ 222 µM). In addition, in data set [3], the inhibition at 48 h, 25 ug/ml was 14.6%. This molecule displayed an MIC in data set [1] of 6.25 µg/mL (≈ 12.3 µM).

For `O=C(Nc1ccc2c(c1)OCCO2)c1c(-c2ccccc2)c2ccccc2[nH]c1=O`, in data set [1], the MIC stood at 25 µg/mL (≈ 62.7 µM).

As for `O=C(Nc1ccc(F)cc1)c1c(-c2ccccc2)c2ccccc2n(Cc2ccccc2)c1=O`, in data set [1], the MIC is more than 25 µg/mL.

Take `O=C(Nc1ccc(Cl)cc1)c1c(-c2ccccc2)c2cc(Cl)ccc2n(Cc2cccc(F)c2)c1=O`: the GI50 at 48 h in data set [2] is 86.8 µg/mL (≈ 168 µM). In data set [3], the inhibition at 48 h, 25 ug/ml was determined as 24.7%. This molecule also displayed an MIC in data set [1] of 0.39 µg/mL (≈ 0.754 µM).

On to `O=C(Nc1cccc(F)c1)c1c(-c2ccccc2)c2cc(Cl)ccc2n(Cc2ccc(F)cc2)c1=O`, for which the MIC in data set [1] was more than 25 µg/mL.

As for `CSc1ccc(NC(=O)c2c(-c3ccccc3)c3ccccc3n(Cc3cccc(Cl)c3)c2=O)cc1`, the MIC in data set [1] is more than 25 µg/mL.

As for `O=C(NC12CC3CC(CC(C3)C1)C2)c1c(-c2ccccc2)c2ccccc2[nH]c1=O`, the GI50 at 48 h in data set [2] worked out at 87.6 µg/mL (≈ 220 µM). Also, the inhibition at 48 h, 25 ug/ml in data set [3] came to 16.2%. This molecule also had an MIC in data set [1] of 3.12 µg/mL (≈ 7.84 µM).

In the case of `O=C(Nc1ccc(N2CCOCC2)cc1)c1c(-c2ccccc2)c2cc(Cl)ccc2[nH]c1=O`, the GI50 at 48 h in data set [2] is 96.4 µg/mL (≈ 210 µM). For the same molecule, in data set [3], the inhibition at 48 h, 25 ug/ml is 18.6%. In data set [1], the MIC was 6.25 µg/mL (≈ 13.6 µM).

On to `NNC(=O)c1ccncc1` [ISONIAZID], for which inhibition of growth in data set [1] (MIC) required 0.1 µg/mL (≈ 0.729 µM).

`Cc1ccc(NC(=O)c2c(-c3ccccc3)c3cc(Cl)ccc3n(Cc3cc(F)cc(F)c3)c2=O)c(C)c1`: in data set [1], inhibition of growth (MIC) required 12.5 µg/mL (≈ 23.6 µM).

For `CO[C@H]1/C=C/O[C@@]2(C)Oc3c(C)c(O)c4c(O)c(c(/C=N/N5CCN(C)CC5)c(O)c4c3C2=O)NC(=O)/C(C)=C\C=C\[C@H](C)[C@H](O)[C@@H](C)[C@@H](O)[C@@H](C)[C@H](OC(C)=O)[C@@H]1C` [RIFAMPIN], the MIC in data set [1] was found to be 0.2 µg/mL (≈ 0.243 µM).

Molecule `O=C(Nc1ccc(CO)cc1)c1c(-c2ccccc2)c2cc(Cl)ccc2[nH]c1=O` had an MIC in data set [1] of more than 25 µg/mL.

`COC(=O)C(Cc1ccc(O)cc1)NC(=O)c1c(-c2ccccc2)c2cc(Cl)ccc2[nH]c1=O` (stereo not given): the minimum inhibitory concentration (MIC) in data set [1] stood at 12.5 µg/mL (≈ 26.2 µM).

`Cc1cccc(Cn2c(=O)c(C(=O)Nc3ccc(OC(F)(F)F)cc3)c(-c3ccccc3)c3cc(Cl)ccc32)c1` yielded an MIC in data set [1] of more than 25 µg/mL.

For the molecule `O=C(Nc1ccc(OC(F)(F)F)cc1)c1c(-c2ccccc2)c2ccccc2n(Cc2ccccc2)c1=O`, the MIC in data set [1] was more than 25 µg/mL.

Take `Cc1cccc(Cn2c(=O)c(C(=O)Nc3ccc(F)cc3)c(-c3ccccc3)c3cc(Cl)ccc32)c1`: in data set [1], the MIC was more than 25 µg/mL.

Molecule `Cc1cccc(Cn2c(=O)c(C(=O)Nc3ccc(Cl)cc3)c(-c3ccccc3)c3cc(Cl)ccc32)c1` had an MIC in data set [1] of 25 µg/mL (≈ 48.7 µM).

`Cc1cccc(Cn2c(=O)c(C(=O)Nc3ccc(Br)cc3)c(-c3ccccc3)c3cc(Cl)ccc32)c1` had an MIC in data set [1] of more than 25 µg/mL.

`O=C(Nc1ccccc1F)c1c(-c2ccccc2)c2cc(Cl)ccc2n(Cc2ccc(F)cc2)c1=O` came in with an MIC in data set [1] of more than 25 µg/mL.

In the case of `O=C(NCCc1c[nH]c2ccccc12)c1c(-c2ccccc2)c2ccccc2[nH]c1=O`, 12.5 µg/mL (≈ 30.7 µM) was the least that counted as inhibitory in data set [1] (MIC).

With `CC[C@@H](CO)NCCN[C@@H](CC)CO` [ETHAMBUTOL], inhibition of growth in data set [1] (MIC) required 1.56 µg/mL (≈ 7.64 µM).

For the molecule `O=C(NCCCn1ccnc1)c1c(-c2ccccc2)c2cc(Cl)ccc2[nH]c1=O`, in data set [1], the MIC stood at 25 µg/mL (≈ 61.4 µM).

In data set [1], `O=C(NCCc1ccc(O)cc1)c1c(-c2ccccc2)c2cc(Cl)ccc2[nH]c1=O` returned an MIC of 25 µg/mL (≈ 59.7 µM).

In data set [1], `Cc1cccc(Cn2c(=O)c(C(=O)Nc3ccc(C(F)(F)F)cc3)c(-c3ccccc3)c3cc(Cl)ccc32)c1` showed an MIC of more than 25 µg/mL.

As to `CSc1ccc(NC(=O)c2c(-c3ccccc3)c3cc(Cl)ccc3n(Cc3cccc(C)c3)c2=O)cc1`, in data set [1], the lowest concentration to inhibit growth (MIC) was 12.5 µg/mL (≈ 23.8 µM).

`O=C(Nc1ccc(C(F)(F)F)cc1)c1c(-c2ccccc2)c2ccccc2n(Cc2ccccc2)c1=O` had an MIC in data set [1] of 25 µg/mL (≈ 50.2 µM).

Consider `O=C(NCCc1ccccc1)c1c(-c2ccccc2)c2cc(Cl)ccc2[nH]c1=O`, for which, in data set [1], 25 µg/mL (≈ 62.1 µM) was the least that counted as inhibitory (MIC).

In data set [1], `CS(=O)(=O)c1ccc(NC(=O)c2c(-c3ccccc3)c3ccccc3n(Cc3cccc(Cl)c3)c2=O)cc1` had an MIC of 12.5 µg/mL (≈ 23 µM).

For `COC(=O)C(Cc1c[nH]c2ccccc12)NC(=O)c1c(-c2ccccc2)c2cc(Cl)ccc2[nH]c1=O` (stereo not given), the GI50 at 48 h in data set [2] is 104 µg/mL (≈ 209 µM). In data set [3], the inhibition at 48 h, 25 ug/ml amounted to 21.5%. The molecule further had an MIC in data set [1] of 6.25 µg/mL (≈ 12.5 µM).

As usually defined, the MIC is the lowest concentration that inhibits growth of the organism. Read a high MIC as a need for much substance. One may read the GI50 as the concentration at which growth is held to half of that of the control.

Values taken from ChEMBL document CHEMBL4270583, “Synthesis and biological evaluation of dihydroquinoline carboxamide derivatives as anti-tubercular agents” (Eur J Med Chem, 2018).
